Assay results: PubChem BioAssay (NCI)
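Test compounds were applied to cells in 96-well plates for 48 hours at 5 doses. At the GI50, growth is halved. The concentration for full growth arrest is given as TGI.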

What was measured:
Assay in all cases: NCI anticancer screen, dose series, 48 h
[1] = test system: U251 CNS
[2] = test system: M14 melanoma
[3] = test system: NCI/ADR-RES ovarian
[4] = test system: MDA-MB-435
[5] = test system: SNB-19 CNS
[6] = test system: SF-268 CNS
[7] = test system: HT29 colon
[8] = test system: UACC-62 melanoma
[9] = test system: SK-MEL-28 melanoma
[10] = test system: CCRF-CEM leukemia
[11] = test system: HOP-62 NSCLC
[12] = test system: 786-0 renal
[13] = test system: NCI-H23 lung
[14] = test system: KM12 colon
[15] = test system: A549 NSCLC
[16] = test system: SK-MEL-5 melanoma
[17] = test system: HCT-15 colon
[18] = test system: MOLT-4 leukemia
[19] = test system: MALME-3M melanoma
[20] = test system: ACHN renal
[21] = test system: HCC-2998 colon
[22] = test system: SW-620 colon
[23] = test system: NCI-H226 lung
[24] = test system: LOX IMVI melanoma
[25] = test system: CAKI-1 renal
[26] = test system: HOP-92 NSCLC
[27] = test system: EKVX NSCLC
[28] = test system: SN12C renal
[29] = test system: OVCAR-3 ovarian
[30] = test system: SK-MEL-2 melanoma
[31] = test system: NCI-H522 lung
[32] = test system: OVCAR-5 ovarian
[33] = test system: IGROV1 ovarian
[34] = test system: UACC-257 melanoma
[35] = test system: SK-OV-3 ovarian
[36] = test system: DU-145 prostate
[37] = test system: HL-60(TB) leukemia
[38] = test system: MDA-MB-231 breast
[39] = test system: BT-549 breast
[40] = test system: SF-539 CNS
[41] = test system: NCI-H460 lung
[42] = test system: OVCAR-8 ovarian
[43] = test system: COLO 205 colon
[44] = test system: RPMI-8226 leukemia
[45] = test system: T-47D breast
[46] = test system: MCF7 breast
[47] = test system: SR leukemia
[48] = test system: HCT-116 colon
[49] = test system: SF-295 CNS
[50] = test system: TK-10 renal
[51] = test system: RXF 393 renal
[52] = test system: SNB-75 CNS
[53] = test system: HS 578T breast
[54] = test system: UO-31 renal
[55] = test system: OVCAR-4 ovarian

NC(=O)c1ccc(I)c(N)c1
GI50 [1]: > 100 µM
TGI [1]: > 100 µM
GI50 [2]: > 100 µM
TGI [2]: > 100 µM
GI50 [3]: > 100 µM
TGI [3]: > 100 µM
GI50 [4]: > 100 µM
TGI [4]: > 100 µM
GI50 [5]: > 100 µM
TGI [5]: > 100 µM
GI50 [6]: > 100 µM
TGI [6]: > 100 µM
GI50 [7]: > 100 µM
TGI [7]: > 100 µM
GI50 [8]: > 100 µM
TGI [8]: > 100 µM
GI50 [9]: > 100 µM
TGI [9]: > 100 µM
GI50 [10]: > 100 µM
TGI [10]: > 100 µM
GI50 [11]: > 100 µM
TGI [11]: > 100 µM
GI50 [12]: > 100 µM
TGI [12]: > 100 µM
GI50 [13]: > 100 µM
TGI [13]: > 100 µM
GI50 [14]: > 100 µM
TGI [14]: > 100 µM
GI50 [15]: > 100 µM
TGI [15]: > 100 µM
GI50 [16]: > 100 µM
TGI [16]: > 100 µM
GI50 [17]: > 100 µM
TGI [17]: > 100 µM
GI50 [18]: > 100 µM
TGI [18]: > 100 µM
GI50 [19]: > 100 µM
TGI [19]: > 100 µM
GI50 [20]: > 100 µM
TGI [20]: > 100 µM
GI50 [21]: > 100 µM
TGI [21]: > 100 µM
GI50 [22]: > 100 µM
TGI [22]: > 100 µM
GI50 [23]: > 100 µM
TGI [23]: > 100 µM
GI50 [24]: > 100 µM
TGI [24]: > 100 µM
GI50 [25]: > 100 µM
TGI [25]: > 100 µM
GI50 [26]: > 100 µM
TGI [26]: > 100 µM
GI50 [27]: > 100 µM
TGI [27]: > 100 µM
GI50 [28]: > 100 µM
TGI [28]: > 100 µM
GI50 [29]: > 100 µM
TGI [29]: > 100 µM
GI50 [30]: > 100 µM
TGI [30]: > 100 µM
GI50 [31]: > 100 µM
TGI [31]: > 100 µM
GI50 [32]: > 100 µM
TGI [32]: > 100 µM
GI50 [33]: > 100 µM
TGI [33]: > 100 µM
GI50 [34]: > 100 µM
TGI [34]: > 100 µM
GI50 [35]: > 100 µM
TGI [35]: > 100 µM
GI50 [36]: > 100 µM
TGI [36]: > 100 µM
GI50 [37]: > 100 µM
TGI [37]: > 100 µM
GI50 [38]: > 100 µM
TGI [38]: > 100 µM
GI50 [39]: > 100 µM
TGI [39]: > 100 µM
GI50 [40]: > 100 µM
TGI [40]: > 100 µM
GI50 [41]: > 100 µM
TGI [41]: > 100 µM
GI50 [42]: > 100 µM
TGI [42]: > 100 µM
GI50 [43]: > 100 µM
TGI [43]: > 100 µM
GI50 [44]: > 100 µM
TGI [44]: > 100 µM
GI50 [45]: > 100 µM
TGI [45]: > 100 µM
GI50 [46]: > 100 µM
TGI [46]: > 100 µM
GI50 [47]: > 100 µM
TGI [47]: > 100 µM
GI50 [48]: > 100 µM
TGI [48]: > 100 µM
GI50 [49]: > 100 µM
TGI [49]: > 100 µM
GI50 [50]: > 100 µM
TGI [50]: > 100 µM
GI50 [51]: > 100 µM
TGI [51]: > 100 µM
GI50 [52]: > 100 µM
TGI [52]: > 100 µM
GI50 [53]: > 100 µM
TGI [53]: > 100 µM
GI50 [54]: > 100 µM
TGI [54]: > 100 µM
GI50 [55]: > 100 µM
TGI [55]: > 100 µM
